Measurements published in patent US20050214248A1, “Non-glycosylated polyacrylamide conjugates and their use for cytoprotection” (University of Bern, priority 2002, published 2005).
Where two headings read alike, the source gives them in different places.

What was measured:
recombinant P-selectin = biological target: T1, recombinant P-selectin (Homo sapiens, UniProt P16109); assay: In vitro assay for inhibition of P-selectin binding (HSO3Le^a-PAA-biotin binding to immobilized recombinant selectin); details: for inhibition of recombinant P-selectin in the cell-free assay: result in words
T1 construct: Recombinant ZZ-selectin (monovalent) lacking the transmembrane and cytosolic domains was produced as C-terminal chimera with the ZZ domain of protein A; made in house
T1 sequence (P16109 42-771 limits assumed): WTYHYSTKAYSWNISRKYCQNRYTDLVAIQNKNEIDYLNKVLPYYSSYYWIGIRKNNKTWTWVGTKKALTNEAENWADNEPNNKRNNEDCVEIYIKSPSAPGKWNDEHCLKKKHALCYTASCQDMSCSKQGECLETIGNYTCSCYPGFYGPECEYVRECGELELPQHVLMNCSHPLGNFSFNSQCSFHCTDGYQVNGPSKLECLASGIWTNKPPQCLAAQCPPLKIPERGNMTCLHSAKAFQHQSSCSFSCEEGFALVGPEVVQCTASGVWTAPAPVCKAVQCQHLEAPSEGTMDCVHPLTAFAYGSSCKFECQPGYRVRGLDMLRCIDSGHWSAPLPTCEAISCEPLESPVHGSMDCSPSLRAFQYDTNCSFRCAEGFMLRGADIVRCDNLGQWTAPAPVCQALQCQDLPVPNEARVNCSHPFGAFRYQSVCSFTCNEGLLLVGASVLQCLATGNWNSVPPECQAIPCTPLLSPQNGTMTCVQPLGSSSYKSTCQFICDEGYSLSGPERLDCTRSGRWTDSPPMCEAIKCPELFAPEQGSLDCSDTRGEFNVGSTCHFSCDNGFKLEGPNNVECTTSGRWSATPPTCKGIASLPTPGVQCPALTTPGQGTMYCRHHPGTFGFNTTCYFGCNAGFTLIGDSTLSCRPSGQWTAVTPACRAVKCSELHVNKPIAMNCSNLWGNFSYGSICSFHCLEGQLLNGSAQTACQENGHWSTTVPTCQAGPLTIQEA
Source text: The in vitro test-system is based on the inhibition of HSO3Le^a-PAA-biotin binding to recombinant P-selectin. For details, see example 1.
All PAA-based neoglycoconjugates were from 30 to 40 kDa and obtained according to standard methods (Gordeeva, E. A., Tuzikov, A. B., Galanina, O. E., Pochechueva, T. V. & Bovin, N. V. (2000). Microscale synthesis of glycoconjugate series and libraries. Anal. Biochem. 278, 230-232; Bovin, N. V., Korchagina, E. Yu., Zemlyanukhina, T. V., Byramova, N. E., Galanina, O. E., Zemlyakov, A. E., Ivanov, A. E., Zubov, V. P., and Mochalova, L. V. (1993) Synthesis of polymeric neoglycoconjugates based on N-substituted polyacrylamide. Glycoconj. J. 10, 142-151). sTyr-PAA (containing 80 mol % sTyr) was synthesized using 200% excess of sTyr in relation to the activated polymer. The degree of sTyr substitution was determined by the conjugate's increase in weight. Recombinant ZZ-selectin (monovalent) lacking the transmembrane and cytosolic domains was produced as C-terminal chimera with the ZZ domain of protein A (Priest, R., Nawaz, S., Green, P. M., and Bird, M. I. (1995). Adhesion of eosinophils to E- & P-selectin. Biochem. Soc. Trans. 23, 162S). Tripeptide Tyr-Tyr-Tyr (Bachem, Germany) and aminoglucitol (Sigma) were per-O-sulfated with SO3/Py complex (Field, R. A., Otter, A., Fu, W., Hindsgaul, O. Carbohydr. Res. 1995, 276, 347-363). Fucoidan was purchased from Sigma (USA).
The assay was performed on 96-Well plates. Human IgG was used as a primary coating reagent to immobilize recombinant selectin via the ZZ-domain of the fusion protein. The working concentration of selectin was 3 ng/well. […] Details of this assay were published in (Game, S. M., Rajapurohit, P. K., Clifford, M., Bird, M. I., Priest, R., Bovin, N. V., Nifant'ev, N. E., O'Beime, G., and Cook, N. D. (1998) Scintillation proximity assay for E-, P-, and L-selectin utilizing polyacrylamide-based neoglycoconjugates as ligands. Anal. Biochem. 258, 127-135; Tatyana V. Pochechueva, Oxana E. Galanina, Michael I. Bird, Nikolay E. Nifant'ev, Nicolai V. Bovin. Assembly of P-Selectin Ligands on a Polymeric Template, Chem&Biol, Vol. 9, 2002, p. 757-762; Natalia Ushakova, Marina Preobrazhenskaya, Mike I. Bird, Richard Priest, A. V. Semenov, A. V. Mazurov, Nikolay Ni-fant'ev, Tatyana Pochechueva, Oxaha Galanina, Nicolai Bovin. Monomeric and Multimeric Blockers of Selectins: Comparison of In Vitro and In Vivo Activity/Biol. Chem. Hoppe Seyler, 2002 submitted).

[1] = test system: Peptone-induced acute rat peritonitis; assay: Rat peritoneal inflammation model (peptone-induced acute peritonitis, neutrophil extravasation); format: in vivo
Description: Acute rat peritonitis was induced as described in (Preobrazhenskaya, M. E., Berman, A. E., Mikhailov, V. I., Ushakova, N. A., Mazurov, A. V., Semenov, A. V., Usov, A. I., Nifant'ev, N. E., and Bovin, N. V. (1997) Fucoidan inhibits leukocyte recruitment in a model peritoneal inflammation in rat and blocks interaction of P-selectin with its carbohydrate ligand. Biochem. Mol. Biol. Int 43, 443-451) with some modifications. 10 ml of PBS containing 10% peptone was injected intraperitoneally into female Wistar rats (180-220 g). After 3 h rats were sacrificed and their peritoneal cavities were laved with 30 ml PBS containing 60 units/ml of heparin, 0.02% EDTA and 0.03% bovine serum. The total cell number in the lavage was counted and the cell suspension was concentrated by centrifugation at 400 g for 10 min. After 1:1 dilution with bovine serum smears were prepared and stained according to the Pappenheim method. Neutrophils were counted on two parallel slides and the total neutrophil number was calculated. The inhibitors were administered intravenously as a single dose in 0.3 ml sterile 0.9% NaCl 15 min after peptone injection. The same volume of NaCl solution Was injected into control animals. A difference between the control and tested groups was analyzed for statistical significance based on Student's t-test, p-values<0.05 were considered to be significant.
Peptone-induced acute rat peritonitis was characterized by neutrophil extravasation into the peritoneal cavities. […] A natural ligand such as recombinant PSGL-1 acts in a dose of about 1 mg/kg (S. P. Khor, K. McCarthy, M. Dupont, K. Murray, G. Timony. Pharmacokinetics, pharmacodynamics, allometry, and dose selection of rPSGL-Ig for phase I trial. J. Pharmacol. Exp. Ther., 293, 618-624 (2000); R. Hayward, B. Campbell, Y. K. Shin, R. Scalia, A. M. Lefer. Recombinant soluble P-selectin glycoprotein ligand-1 protects against myocardial ischemic reperfusion injury in cats. Cardiovascular Res., 41, 65-76 (1999)) which approaches the fucoidan activity under study. […]

P-selectin = biological target: T2, P-selectin (Homo sapiens, UniProt P16109); details: cited from earlier work
T2 sequence (P16109 42-830): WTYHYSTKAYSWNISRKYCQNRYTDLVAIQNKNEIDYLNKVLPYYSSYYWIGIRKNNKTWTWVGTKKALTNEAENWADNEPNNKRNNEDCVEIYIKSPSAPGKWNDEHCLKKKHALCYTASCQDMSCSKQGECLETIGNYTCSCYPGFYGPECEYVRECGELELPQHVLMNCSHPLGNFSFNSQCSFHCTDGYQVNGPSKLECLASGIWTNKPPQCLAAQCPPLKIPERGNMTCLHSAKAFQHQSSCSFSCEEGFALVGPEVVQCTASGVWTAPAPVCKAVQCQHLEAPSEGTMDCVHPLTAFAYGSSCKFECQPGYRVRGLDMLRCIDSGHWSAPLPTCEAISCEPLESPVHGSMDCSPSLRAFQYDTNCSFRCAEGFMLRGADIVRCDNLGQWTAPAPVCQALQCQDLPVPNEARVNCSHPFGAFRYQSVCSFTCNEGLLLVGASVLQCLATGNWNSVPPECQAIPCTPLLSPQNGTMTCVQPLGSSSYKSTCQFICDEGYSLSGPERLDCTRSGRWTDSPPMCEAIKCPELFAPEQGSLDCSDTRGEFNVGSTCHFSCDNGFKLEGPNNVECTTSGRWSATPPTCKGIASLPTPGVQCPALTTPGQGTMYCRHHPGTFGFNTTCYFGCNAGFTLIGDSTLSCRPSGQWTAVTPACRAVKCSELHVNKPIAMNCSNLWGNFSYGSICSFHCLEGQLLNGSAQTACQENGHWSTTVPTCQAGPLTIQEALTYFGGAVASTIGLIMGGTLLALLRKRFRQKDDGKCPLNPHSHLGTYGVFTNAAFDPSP

yield of neutrophils = details: mouse; Cecconi et al. 1994; cited from earlier work
[2] = inhibition of HSO3Le^a-PAA-biotin binding with P-selectin, means of at least triplicate determinations

## N[C@@H](Cc1ccc(OS(=O)(=O)O)cc1)C(=O)O [sTyr, tyrosine-O-sulfate]
Recombinant P-selectin; [2]
  IC50, μM: Nl

## Hexa-O-sulfo-aminoglucitol
Recombinant P-selectin; [2]
  IC50, μM: Nl
Recombinant P-selectin
  inhibition of recombinant P-selectin in the cell-free assay: unable to inhibit

## Fucoidan
[1]; Series 2, 1.0 mg per rat i.v.
  Mean inhibition (% to control): 92 (p < 0.001) %
[1]; Series 2, 1.0 mg per rat i.v., mean ± SEM
  Number of neutrophils per rat × 10^−6: 2.5 ± 0.5 × 10^−6
[1]; result in words
  blocking of the inflammation process: definitely blocked the inflammation process
P-selectin; Pochechueva et al., Ley et al. 1993, repeating hexasaccharide units
  IC50: 100 nM
Recombinant P-selectin; [2]
  IC50: 100 nM
Recombinant P-selectin; inhibition of HSO3Le^a-PAA-biotin binding with P-selectin, weight concentration
  IC50 in weight: (100 ng/ml)^2

## 3-0-sulfated galactocerebroside [sulfatide]
P-selectin; Marinier et al. 1997, sulfatide and some of its synthetic analogues
  IC50: 100 to 1000 nM

## CC(=O)NC1C(O)OC(CO)C(OC2OC(C)C(O)C(O)C2O)C1OC1OC(CO)C(O)C(OS(=O)(=O)O)C1O (centres unmarked) [HSO3Le^a, 3′-HSO3Galβ1-3(Fucα1-4)GIcNAc]
Recombinant P-selectin; [2]
  IC50, μM: Nl

## O=P(O)(O)O[C@H]1[C@H](OP(=O)(O)O)[C@@H](OP(=O)(O)O)[C@H](OP(=O)(O)O)[C@@H](OP(=O)(O)O)[C@H]1OP(=O)(O)O [Inositol hexaphosphate]
Yield of neutrophils
  dose inhibiting the yield of neutrophils (almost half of them): about 70 mg/kg

## Tripeptide Tyr-Tyr-Tyr per-O-sulfated with SO3/Py complex [sTyr-sTyr-sTyr]
Recombinant P-selectin; [2]
  IC50, μM: Nl
Recombinant P-selectin
  inhibition of recombinant P-selectin in the cell-free assay: unable to inhibit
